# Legend:
# [1] = tested on: H460 non-small cell lung cancer (NSCLC) cell line; assay: Alamar blue cytotoxicity assay in H460 NSCLC tumour cell line; format: cell-based; details: for Fold increase in potency: H460 cellular IC50 compared with seliciclib; for IC50: H460 cells, 72 hours, average of three independent experiments
# Procedure: In order to determine the cellular potency of the compounds, the cytotoxicity of each compound was determined against the H460 non-small cell lung cancer (NSCLC) cell line. Standard cytotoxicity methods were performed as follows: H460 cells were seeded in 96-well plates appropriately for their doubling time (3000 cells per well) in RPMI media containing 10% FCS and incubated overnight at 37° C., 5% CO2. The media was removed and 100 μl fresh media containing increasing concentrations of appropriate compound was added and the cells incubated for 72 hours at 37° C., 5% CO2. A 10% stock of alamar blue (Roche, Lewes, United Kingdom) was prepared in medium and 100 μl added to the cells which were incubated for 2 hours.
# CDK2/cyclin E = CDK2/cyclin E (Homo sapiens (Human), UniProt P24941); assay: In-vitro recombinant kinase assay CDK2/cyclin E; format: biochemical; details: Table 2; average of duplicate points; read-out: CDK2/Cyclin E Average IC50
# Procedure: (§1) To evaluate the in-vitro kinase potency of the compounds, they were screened against CDK 2 and CDK9. Kinase assays were performed in 96-well plates using recombinant CDK/cyclins generated at Cyclacel. Ltd Dundee, UK. CDK2 and CDK9 assays were performed in a total volume of 25 μl in assay buffer (25 mM b-glycerophosphate, 20 mM MOPS, 5 mM EGTA, 1 mM DTT and 1 mM NaVO3, pH 7.4), into which were added 2-4 μg of active enzyme with appropriate substrates (purified histone H1 for CDK2/cyclin E, and CDK2/cyclin A, biotinyl-Ahx-(YSPTSPS)4 for CDK9/cyclin T1). […] CDK2 reactions were stopped by addition of 25 μl of 75 mM phosphoric acid, followed by filtration through P81 filterplates (Whatman Polyfiltronics, Kent, UK). For CDK9, the reaction was stopped by addition of 25 μl of 75 mM phosphoric acid, then 5 μl of 10 mg/ml avidin was added to each well and further incubated for 2 min followed by filtration as per CDK2 assay. After washing 3 times with 75 mM orthophosphoric acid, plates were dried, scintillant added and incorporated radioactivity measured in a scintillation counter (TopCount, Packard Instruments, Pangbourne, Berks, UK). Compounds for kinase assay were made up as 10 mM stocks in DMSO and diluted into 10% DMSO in assay buffer.
# as §1
# CDK9/cyclin T1 = CDK9/cyclin T1 (Homo sapiens (Human), UniProt P50750); assay: In-vitro recombinant kinase assay CDK9/cyclin T1; format: biochemical; details: Table 2; average of duplicate points
# Sequence of CDK9/cyclin T1 (P50750 whole entry, species assumed): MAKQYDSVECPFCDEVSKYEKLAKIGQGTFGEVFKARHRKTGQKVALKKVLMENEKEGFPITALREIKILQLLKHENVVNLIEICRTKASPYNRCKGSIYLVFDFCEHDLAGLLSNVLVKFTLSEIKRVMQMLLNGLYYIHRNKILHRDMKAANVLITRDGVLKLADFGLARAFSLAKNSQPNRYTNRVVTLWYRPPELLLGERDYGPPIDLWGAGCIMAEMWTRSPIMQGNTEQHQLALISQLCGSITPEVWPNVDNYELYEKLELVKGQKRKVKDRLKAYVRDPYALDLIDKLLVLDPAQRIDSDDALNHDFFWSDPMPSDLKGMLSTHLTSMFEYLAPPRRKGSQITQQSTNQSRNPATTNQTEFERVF
# Sequence of CDK9/cyclin T1 (O60563 whole entry partner, species assumed): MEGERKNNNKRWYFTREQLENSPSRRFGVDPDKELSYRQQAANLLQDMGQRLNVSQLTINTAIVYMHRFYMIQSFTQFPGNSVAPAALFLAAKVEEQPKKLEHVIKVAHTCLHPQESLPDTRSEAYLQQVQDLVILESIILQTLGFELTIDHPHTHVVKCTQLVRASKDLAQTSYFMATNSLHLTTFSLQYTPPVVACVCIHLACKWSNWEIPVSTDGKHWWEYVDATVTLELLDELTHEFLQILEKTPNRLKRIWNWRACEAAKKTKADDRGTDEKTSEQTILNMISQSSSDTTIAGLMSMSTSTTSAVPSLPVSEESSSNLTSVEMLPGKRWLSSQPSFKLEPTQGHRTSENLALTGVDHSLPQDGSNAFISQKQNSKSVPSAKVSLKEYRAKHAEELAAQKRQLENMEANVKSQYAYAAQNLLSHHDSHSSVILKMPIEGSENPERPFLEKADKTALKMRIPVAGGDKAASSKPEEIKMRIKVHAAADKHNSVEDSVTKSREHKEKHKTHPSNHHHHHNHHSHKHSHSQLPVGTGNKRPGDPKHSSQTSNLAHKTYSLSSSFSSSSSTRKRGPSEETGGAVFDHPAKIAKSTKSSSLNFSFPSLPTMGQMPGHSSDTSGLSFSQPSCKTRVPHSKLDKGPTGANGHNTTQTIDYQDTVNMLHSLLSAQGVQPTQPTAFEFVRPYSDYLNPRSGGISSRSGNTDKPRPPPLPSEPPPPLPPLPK
# Procedure: as §1, §1
SMILES,Fold increase in potency [1],"IC50 ([1]; Homo sapiens, NCI-H460, 72 h)",IC50 (CDK2/cyclin E),IC50 (CDK9/cyclin T1),IC50 [1]
"CC(C)n1cnc2c(NCc3cccnc3)nc(NCC(O)C(F)(F)F)nc21 (stereo not shown) [[15], 1,1,1-Trifluoro-3-(9-isopropyl-6-(pyridin-3-ylmethylamino)-9H-purin-2-ylamino)propan-2-ol]",0.6,20.3 µM,0.57 µM,7.4 µM,
"CC[C@H](Nc1nc(NCc2cccc(C)n2)c2ncn(C(C)C)c2n1)[C@@H](C)O [[12], 2R,3S-3-(9-Isopropyl-6-((6-methylpyridin-2-yl)methylamino)-9H-purin-2-ylamino)pentan-2-ol]",1.7,7.2 µM,0.05 µM,2.04 µM,
"CC[C@H](Nc1nc(NCc2ncccc2C)c2ncn(C(C)C)c2n1)[C@@H](C)O [[13], 2R,3S-3-(9-Isopropyl-6-((3-methylpyridin-2-yl)methylamino)-9H-purin-2-ylamino)pentan-2-ol]",0.6,19.4 µM,0.77 µM,5.84 µM,
"CC[C@H](Nc1nc(NCc2cc(C)nc(C)c2)c2ncn(C(C)C)c2n1)[C@@H](C)O [[10], 2R,3S-3-(9-Isopropyl-6-(2,6-dimethylpyridine-4-ylmethylamino)-9H-purin-2-ylamino)pentan-2-ol]",5.0,2.4 µM,0.05 µM,1.04 µM,
"CC[C@H](Nc1nc(NCC2CC2)c2ncn(C(C)C)c2n1)[C@@H](C)O [[7], 2R,3S-3-(6-(Cyclopropylmethylamino)-9-isopropyl-9H-purine-2-ylamino)pentan-2-ol]",5.0,2.4 µM,0.04 µM,0.38 µM,
"CCC(Nc1nc(NCc2cccnc2)c2ncn(C(C)C)c2n1)C(O)C(F)(F)F (stereo not shown) [[16], 1,1,1-Trifluoro-3-(9-isopropyl-6-(pyridin-3-ylmethylamino)-9H-purin-2-ylamino)pentan-2-ol]",2.9,4.1 µM,0.09 µM,2.14 µM,
"CC(C)n1cnc2c(NCc3cccnc3)nc(NC[C@@H](C)O)nc21 [[14], (R)-1-(9-Isopropyl-6-(pyridin-3-ylmethylamino)-9H-purin-2-ylamino)propan-2-ol]",0.7,16.7 µM,0.29 µM,6.53 µM,
CC[C@H](Nc1nc(NC2CC2)c2ncn(C(C)C)c2n1)[C@@H](C)O [[6]],7.1,1.7 µM,0.05 µM,0.27 µM,
"CC[C@H](Nc1nc(NCc2ccncc2)c2ncn(C(C)C)c2n1)[C@@H](C)O [[9], 2R,3S-3-(9-Isopropyl-6-(pyridine-4-ylmethylamino)-9H-purin-2-ylamino)pentan-2-ol]",5.2,2.3 µM,0.04 µM,0.61 µM,
"CC[C@H](Nc1nc(NCc2ccc(C(F)(F)F)nc2)c2ncn(C(C)C)c2n1)[C@@H](C)O [[11], 2R,3S-3-(9-Isopropyl-6-((6-(trifluoromethyl)pyridine-3-yl)methylamino)-9H-purin-2-ylamino)pentan-2-ol]",13.3,< 1 µM,0.04 µM,0.25 µM,0.9 µM
"CC[C@H](Nc1nc(NCc2cccnc2)c2ncn(CC3CC3)c2n1)[C@@H](C)O [[5], 2R,3S-3-(9-(Cyclopropylmethyl)-6-(pyridin-3-ylmethylamino)-9H-purin-2-ylamino)pentan-2-ol]",0.3,34.4 µM,0.83 µM,7.89 µM,
"CC[C@H](Nc1nc(NC2CCC2)c2ncn(C(C)C)c2n1)[C@@H](C)O [[8], 2R,3S-3-(6-(Cyclobutylamino)-9-isopropyl-9H-purin-2-ylamino)pentan-2-ol]",4.1,2.9 µM,0.16 µM,0.5 µM,
